pIC50: −log10 of the molar value.
Target: T1, Gag-Pol polyprotein [1148-1435] (Human immunodeficiency virus 1, UniProt P04585)
T1 construct: 1148-1435
Assay: In Vitro Integrase Assay
Experimental: The compound were evaluated in biochemical IN (integrase) assay that measure inhibitory potency (IC50 values)against both the 3'-processing(3'P)and strand transfer(ST)reaction.

Row | Structure (SMILES) | pIC50
1 | Cc1c2c(c(O)c(=O)n1C)C(=O)N(Cc1ccc(F)c(Cl)c1)C2=O [Bicyclic hydroxy-1H-pyrrolopyridine-trione, 5a] | 5.17
2 | Cc1c2c(c(O)c(=O)n1-c1ccccc1)C(=O)N(Cc1ccc(F)c(Cl)c1)C2=O [Bicyclic hydroxy-1H-pyrrolopyridine-trione, 5b] | 5.19
3 | CC(C)Cc1c2c(c(O)c(=O)n1C(C)C)C(=O)N(Cc1ccc(F)c(Cl)c1)C2=O [Bicyclic hydroxy-1H-pyrrolopyridine-trione, 5c] | 4.67
4 | CC(=O)OCc1c2c(c(O)c(=O)n1C(C)C)C(=O)N(Cc1ccc(F)c(Cl)c1)C2=O [Bicyclic hydroxy-1H-pyrrolopyridine-trione, 5d] | 4.81
5 | COC(=O)CCc1c2c(c(O)c(=O)n1C(C)C)C(=O)N(Cc1ccc(F)c(Cl)c1)C2=O [Bicyclic hydroxy-1H-pyrrolopyridine-trione, 5e] | 5.15
6 | CC(=O)OCc1[nH]c(=O)c(O)c2c1C(=O)N(Cc1ccc(F)c(Cl)c1)C2=O [Bicyclic hydroxy-1H-pyrrolopyridine-trione, 5f] | 4.91
7 | O=C1c2c(CO)[nH]c(=O)c(O)c2C(=O)N1Cc1ccc(F)c(Cl)c1 [Bicyclic hydroxy-1H-pyrrolopyridine-trione, 5g] | 5.19

Source: BindingDB's records for doi:10.1111/j.1747-0285.2011.01270.x (National Institutes of Health, 2012)
